According to ChEMBL document CHEMBL4177587, “SIRT6 inhibitors with salicylate-like structure show immunosuppressive and chemosensitizing effects” (Bioorg Med Chem, 2017):
Activity calls are given as the source filed them. No cut-off for these calls is given here.

Biological target: NAD-dependent protein deacylase sirtuin-6 (Homo sapiens, UniProt Q8N6T7)
Assay: Inhibition of human recombinant SIRT6 assessed as reduction in NAD+-dependent deacetylase activity at 200 uM using Arg-His-Lys-Lys(epsilon-acetyl)-AMC substrate and NAD+ by fluorescence based assay

Chain of NAD-dependent protein deacylase sirtuin-6 (Q8N6T7 whole entry): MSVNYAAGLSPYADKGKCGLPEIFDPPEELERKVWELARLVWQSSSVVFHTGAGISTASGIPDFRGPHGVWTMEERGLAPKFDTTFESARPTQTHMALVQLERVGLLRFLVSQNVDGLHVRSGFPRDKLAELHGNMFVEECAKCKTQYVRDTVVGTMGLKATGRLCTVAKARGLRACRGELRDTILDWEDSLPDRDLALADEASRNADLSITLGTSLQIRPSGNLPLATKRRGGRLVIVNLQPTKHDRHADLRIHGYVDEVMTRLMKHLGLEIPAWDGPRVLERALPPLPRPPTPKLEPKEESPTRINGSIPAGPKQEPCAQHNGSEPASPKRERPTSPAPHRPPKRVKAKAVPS

inhibition | Structure (SMILES)
89% | O=C(Nc1ccc(O)c(C(=O)O)c1)c1ccc(N2C(=O)CCS2(=O)=O)cc1
62% | O=C(Nc1ccc(C(=O)O)c(O)c1)c1cccc(NC(=O)c2ccco2)c1
inactive | CC(=O)Nc1ccc(NS(=O)(=O)c2ccc(O)c(C(=O)O)c2)cc1
4% | Cc1ccc(C(=O)O)cc1NC(=O)c1cccc(NC(=O)c2ccco2)c1
5% | O=C(O)c1cccc(NC(=O)c2cccc(N3C(=O)CCS3(=O)=O)c2)c1
39% | O=C(O)c1cccc(NC(=O)c2cccc(NC(=O)c3cccs3)c2)c1
100% | O=C(Nc1ccc(C(=O)O)c(O)c1)c1ccc(N2C(=O)CCS2(=O)=O)cc1

Second part, the compound before the results:

Structure (SMILES) | inhibition
O=C(Nc1ccc(C(=O)O)c(O)c1)c1ccc(N2C(=O)c3ccccc3C2=O)cc1 | 17%
O=C(Cc1cccs1)Nc1cccc(C(=O)Nc2cccc(C(=O)O)c2)c1 | inactive
O=C(Nc1ccc(C(=O)O)c(O)c1)c1cccc(N2C(=O)CCS2(=O)=O)c1 | 44%
O=C(O)c1cc(NC(=O)c2cccc(N3C(=O)CCC3=O)c2)cc(C(=O)O)c1 | 68%
O=C(O)c1cccc(NC(=O)c2cccc(NC(=O)C3CCCO3)c2)c1 (configuration not stated) | inactive
